Source: patent publication US20020137929A1, “1 - (3-heterocyclylphenyl) isothiourea, -isourea, -guanidine and -amidine herbicidal agents” (Intellectual Property Department, BASF Aktiengesellschaft, priority 1998, published 2002)

Columns and labels:
ECHCG (Barnyardgrass) = assay: Postemergence herbicidal evaluation; type: in vivo, Echinochloa crus-galli; settings: postemergence
How it was run: (§1)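 Each compound, dispersed in an acetone/water mix (50/50) carrying 0.5% TWEEN 20, is nozzle-sprayed at 40 psi on approximately two-week-old seedlings at about 0.0156–0.500 kg/ha. Plants are assessed 4–5 weeks afterward on a 0–9 scale relative to control; duplicate tests are averaged.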

AMBEL (Ragweed, Common) [1] = assay: Postemergence herbicidal evaluation; type: in vivo, Ambrosia artemisifolia; settings: postemergence
How it was run: as §1

[2] = system: GLXMAW (Soybean, Williams); assay: Preemergence herbicidal evaluation; type: in vivo, Glycine max, (L.) Merr. cv Williams; settings: rated 4-5 weeks after treatment, rating scale 0-9
How it was run: (§2)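 Test compound, dissolved in aqueous acetone, was sprayed over planted soil cups at an equivalent of about 0.0156 to 0.500 kg/ha; seeds had been mixed with potting soil. Greenhouse growth followed, with visual 0-9 scoring of injury at four to five weeks.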

ORYSAT (Rice, Tebonnet) = assay: Preemergence herbicidal evaluation; type: in vivo, Oryza sativa, (L.) Tebonnet; settings: rated 4-5 weeks after treatment, rating scale 0-9
How it was run: as §2

ABUTH (Velvetleaf) = assay: Preemergence herbicidal evaluation; type: in vivo, Abutilon theophrasti; settings: rated 4-5 weeks after treatment, rating scale 0-9
How it was run: as §2

MOOVA (Monochoria) = assay: Preemergence weed control under flooded paddy conditions; type: in vivo, Monochoria vaginalis; settings: rated 3-4 weeks after treatment
How it was run: (§3)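 Silt loam, seeds in top 0.5 cm; flood held 1.5-3 cm; test cpd as acetone/water 50/50 into flood water, ~0.0313-0.500 kg/ha a.i.; greenhouse 3-4 wk; visual 0-9 score vs control.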

[3] = system: SAGPY (Arrowhead (Pygmaea)); assay: as above; type: in vivo, Sagittaria pygmaea; settings: rated 3-4 weeks after treatment
How it was run: as §3

[4] = system: CHEAL (Lambsquarters, Common); assay: Preemergence herbicidal evaluation; type: in vivo, Chenopodium album; settings: rated 4-5 weeks after treatment, rating scale 0-9
How it was run: as §2

AMBEL (Ragweed, Common) [5] = assay: Preemergence herbicidal evaluation; type: in vivo, Ambrosia artemisifolia; settings: rated 4-5 weeks after treatment, rating scale 0-9
How it was run: as §2

CASOB (Sicklepod) [6] = assay: Preemergence herbicidal evaluation; type: in vivo, Cassia obtusifolia; settings: rated 4-5 weeks after treatment, rating scale 0-9
How it was run: as §2

[7] = system: IPOHE (Morningglory, Ivyleaf); assay: Preemergence herbicidal evaluation; type: in vivo, Ipomoea hederacea; settings: rated 4-5 weeks after treatment, rating scale 0-9
How it was run: as §2

[8] = system: CHEAL (Lambsquarters, Common); assay: Postemergence herbicidal evaluation; type: in vivo, Chenopodium album; settings: postemergence
How it was run: as §1

[9] = system: GLXMAW (Soybean, Williams); assay: Postemergence herbicidal evaluation; type: in vivo, Glycine max, (L.) Merr. cv Williams; settings: postemergence
How it was run: as §1

[10] = system: TRZAWR (Wheat, Winter, cv Riband); assay: Postemergence herbicidal evaluation; type: in vivo, Triticum aestivum; settings: postemergence
How it was run: as §1

[11] = system: IPOHE (Morningglory, Ivyleaf); assay: Postemergence herbicidal evaluation; type: in vivo, Ipomoea hederacea; settings: postemergence
How it was run: as §1

CASOB (Sicklepod) [12] = assay: Postemergence herbicidal evaluation; type: in vivo, Cassia obtusifolia; settings: postemergence
How it was run: as §1

COCCN1C(=O)CSC1=Nc1cc(-n2c(=O)cc(C(F)(F)F)n(C)c2=O)c(F)cc1Cl [Compound 155, 3-{4-Chloro-2-fluoro-5-{[3-(2-methoxyethyl)-4-oxo-2-thiazolidinylidene]amino}phenyl}-1-methyl-6-(trifluoromethyl)-2,4(1H,3H)-pyrimidinedione]
4.0: Preemergence herbicidal rating GLXMAW ([2]; rate 0.2500 kg/ha) | Preemergence herbicidal rating ABUTH (ABUTH (Velvetleaf); rate 0.1250 kg/ha) | Preemergence herbicidal rating AMBEL (AMBEL (Ragweed, Common) [5]; rate 0.2500 kg/ha) | herbicidal rating GLXMAW ([9]; rate 0.0156 kg/ha) | herbicidal rating IPOHE ([11]; rate 0.0313 kg/ha)
9.0: Preemergence herbicidal rating CHEAL ([4]; rate 0.1250 kg/ha) | Preemergence herbicidal rating CHEAL ([4]; rate 0.2500 kg/ha) | herbicidal rating IPOHE ([11]; rate 0.0625 kg/ha)
7.0: Preemergence herbicidal rating ABUTH (ABUTH (Velvetleaf); rate 0.2500 kg/ha)
2.0: Preemergence herbicidal rating ORYSAT (ORYSAT (Rice, Tebonnet); rate 0.2500 kg/ha) | Preemergence herbicidal rating ABUTH (ABUTH (Velvetleaf); rate 0.0625 kg/ha) | Preemergence herbicidal rating AMBEL (AMBEL (Ragweed, Common) [5]; rate 0.1250 kg/ha) | Preemergence herbicidal rating IPOHE ([7]; rate 0.2500 kg/ha) | herbicidal rating TRZAWR ([10]; rate 0.0313 kg/ha) | herbicidal rating IPOHE ([11]; rate 0.0156 kg/ha)
5.0: herbicidal rating GLXMAW ([9]; rate 0.0313 kg/ha) | herbicidal rating GLXMAW ([9]; rate 0.0625 kg/ha)
0.0: herbicidal rating ECHCG (ECHCG (Barnyardgrass); rate 0.0156 kg/ha) | herbicidal rating ECHCG (ECHCG (Barnyardgrass); rate 0.0313 kg/ha) | herbicidal rating ECHCG (ECHCG (Barnyardgrass); rate 0.0625 kg/ha) | herbicidal rating AMBEL (AMBEL (Ragweed, Common) [1]; rate 0.0156 kg/ha) | herbicidal rating AMBEL (AMBEL (Ragweed, Common) [1]; rate 0.0313 kg/ha) | herbicidal rating AMBEL (AMBEL (Ragweed, Common) [1]; rate 0.0625 kg/ha) | Preemergence herbicidal rating GLXMAW ([2]; rate 0.0625 kg/ha) | Preemergence herbicidal rating GLXMAW ([2]; rate 0.1250 kg/ha) | Preemergence herbicidal rating ORYSAT (ORYSAT (Rice, Tebonnet); rate 0.0625 kg/ha) | Preemergence herbicidal rating ORYSAT (ORYSAT (Rice, Tebonnet); rate 0.1250 kg/ha) | herbicidal effect rating, MOOVA (MOOVA (Monochoria); 0.0313 kg/ha) | herbicidal effect rating, MOOVA (MOOVA (Monochoria); 0.0625 kg/ha) | herbicidal effect rating, MOOVA (MOOVA (Monochoria); 0.1250 kg/ha) | herbicidal effect rating, MOOVA (MOOVA (Monochoria); 0.2500 kg/ha) | herbicidal effect rating, SAGPY ([3]; 0.0313 kg/ha) | herbicidal effect rating, SAGPY ([3]; 0.0625 kg/ha) | herbicidal effect rating, SAGPY ([3]; 0.1250 kg/ha) | herbicidal effect rating, SAGPY ([3]; 0.2500 kg/ha) | Preemergence herbicidal rating CHEAL ([4]; rate 0.0625 kg/ha) | Preemergence herbicidal rating AMBEL (AMBEL (Ragweed, Common) [5]; rate 0.0625 kg/ha) | Preemergence herbicidal rating CASOB (CASOB (Sicklepod) [6]; rate 0.0625 kg/ha) | Preemergence herbicidal rating CASOB (CASOB (Sicklepod) [6]; rate 0.1250 kg/ha) | Preemergence herbicidal rating CASOB (CASOB (Sicklepod) [6]; rate 0.2500 kg/ha) | Preemergence herbicidal rating IPOHE ([7]; rate 0.0625 kg/ha) | Preemergence herbicidal rating IPOHE ([7]; rate 0.1250 kg/ha) | herbicidal rating CHEAL ([8]; rate 0.0156 kg/ha) | herbicidal rating CHEAL ([8]; rate 0.0313 kg/ha) | herbicidal rating CHEAL ([8]; rate 0.0625 kg/ha) | herbicidal rating CASOB (CASOB (Sicklepod) [12]; rate 0.0156 kg/ha) | herbicidal rating CASOB (CASOB (Sicklepod) [12]; rate 0.0313 kg/ha) | herbicidal rating CASOB (CASOB (Sicklepod) [12]; rate 0.0625 kg/ha)
1.0: herbicidal rating TRZAWR ([10]; rate 0.0156 kg/ha)
3.0: herbicidal rating TRZAWR ([10]; rate 0.0625 kg/ha)
